From patent publication US4430339A, “Substituted oxiranecarboxylic acids, their preparation and their use as medicaments” (Byk Gulden Lomberg Chemische Fabrik Gesellschaft mit …, priority 1980, dated 1984)
Like-named read-outs stand apart in the source and are kept apart here.

Key:
in vivo = conditions: mouse, po, mice p.o., observation time 7 days, read-out: Acute toxicity LD50 (converted)
Protocol: Column B provides data relating to acute toxicity (LD50; mice, peroral administration).
2. Determination of the toxicity.
Various doses of the substances (volume: 10 ml/kg) are administered orally by means of a stomach tube. The observation time is 7 days.

[1] = test system: blood glucose concentration; assay: Determination of glucose in the blood after a single oral administration (fasted, metabolically healthy rats); parameters: species or system Sprague-Dawley rats; conditions: Rattus norvegicus, read-out: Change in the blood glucose concentration (in %) in vivo (maximum, relative to the control group)
Protocol: Table I reflects investigations of the effect of representative compounds according to the invention on the blood glucose concentration of fasting, metaboically healthy rats. Column A in each case gives the maximum lowering of the blood glucose concentration of rats which have been fasted (in %, relative to the control group) which is observed in the course of 6 hours after single oral administration of 0.6 mmole of substance/kg of body weight. Column B provides data relating to acute toxicity (LD50; mice, peroral administration).
Column A = maximum change in the blood glucose concentration (in %,
relative to the control animals) in vivo in rats which have been fasted a
1. Determination of glucose in the blood after a single oral administration.
Young male Sprague-Dawley rats (body weight: 150 to 200 g) are used. The animals (6 animals per dose) are kept in Makrolon cages with up to 4 animals per cage (ambient temperature: 23° C., relative atmospheric humidity: 55%, fixed day/night rhythm [12/12 hours], standard diet: Altromin®). The rats are deprived of the feed 18 hours before the first sample of blood is taken. Water is available ad libitum. Samples of blood are taken from the postorbital plexus by puncture immediately before and 2, 4 and 6 hours after administration of the substance.
After deproteinization with perchloric acid, the glucose in the blood is determined by means of the enzymatic HK/G-6-PDH method of R. Richterich [Klinische Chemie, Theorie und Praxis, (Clinical Chemistry, Theory and Practice), 3rd edition, 1971, S. Karger Verlag, Zurich-Basle, page 275]. A control group (10 animals, treated with pure solvent) is also investigated in each case for comparison.

[2] = fasted rats, single oral administration of 0.6 mmole/kg, maximum in the course of 6 hours

SMILES: CCOC(=O)C1(CCCCC2CCCC2)CO1 (stereo not shown) [Serial No. 6, 2-(4-Cyclopentylbutyl)-oxirane-2-carboxylic acid ethyl ester]
- LD50 (in vivo): 1600 mg/kg
- change in vivo at 600 µmol/kg [1, 2]: -21%

SMILES: CCOC(=O)C1(CCCC2CCCC2)CO1 (stereo not shown) [Serial No. 5, 2-(3-Cyclopentylpropyl)-oxirane-2-carboxylic acid ethyl ester]
- LD50 (in vivo): 2400 mg/kg
- change in vivo at 600 µmol/kg [1, 2]: -15%

SMILES: [H]/N=C(/N)N/C(=N/[H])NCCc1ccccc1 [Serial No. 2, Phenformin, reference compound]
- change in vivo at 600 µmol/kg [1, 2]: -6%

SMILES: CCOC(=O)C1(CCCCCC2CCCCCC2)CO1 (stereo not shown) [Serial No. 9, 2-(5-Cycloheptylpentyl)-oxirane-2-carboxylic acid ethyl ester]
- LD50 (in vivo): 330 mg/kg
- change in vivo at 600 µmol/kg [1, 2]: -18%

SMILES: CCOC(=O)C1(CCOCCCC2CCCCC2)CO1 (stereo not shown) [Serial No. 7, 2-[2-(3-Cyclohexylpropyloxy)-ethyl]-oxirane-2-carboxylic acid ethyl ester]
- LD50 (in vivo): 570 mg/kg
- change in vivo at 600 µmol/kg [1, 2]: -30%

SMILES: CCOC(=O)C1(CCCC2CCCCCC2)CO1 (stereo not shown) [Serial No. 8, 2-(3-Cycloheptylpropyl)-oxirane-2-carboxylic acid ethyl ester]
- LD50 (in vivo): 790 mg/kg
- change in vivo at 600 µmol/kg [1, 2]: -22%

SMILES: CCOC(=O)C1(CCCCCC2CCCCC2)CO1 (stereo not shown) [Serial No. 4, 2-(5-Cyclohexylpentyl)-oxirane-2-carboxylic acid ethyl ester]
- LD50 (in vivo): 520 mg/kg
- change in vivo at 600 µmol/kg [1, 2]: -48%

SMILES: CCOC(=O)C1(CCCC2CCCCC2)CO1 (stereo not shown) [Serial No. 3, 2-(3-Cyclohexylpropyl)-oxirane-2-carboxylic acid ethyl ester]
- LD50 (in vivo): 1400 mg/kg
- change in vivo at 600 µmol/kg [1, 2]: -24%

SMILES: CCCCNC(=N)NC(=N)N [Serial No. 1, Buformin, reference compound]
- change in vivo at 600 µmol/kg ([1]; po, 6 h): -8%
